Source: patent US8399484B2, “Combination therapy for treating HCV infection” (priority 2008, dated 2013)
pEC50: −log10 of the molar value. Where a name gives a salt, the structure may show the parent alone. Read-outs that look alike come from different tables or passages of the source.

Key:
[1] = tested on: chronic HCV genotype-1 infection; conditions: for VL rebound during treatment in the first 14 days of monotherapy: all dose groups
Procedure: (§1) The solvent was also used as the placebo.
A multiple rising dose study evaluated safety and antiviral activity in treatment-naive patients (pts) with chronic HCV genotype-1 infection as monotherapy for 14 days followed by triple combination therapy with P+R for an additional 14 days.
Plasma HCV-RNA levels were measured with Roche COBAS® TaqMan® assay (LLOQ 25 IU/m L). After day 28, at the discretion of the investigator, patients could continue to receive standard of care treatment, i.e., P+R.

[2] = tested on: D168 variants (genotype 1b NS3); assay: Drug sensitivity assay: HCV replicon shuttle vector with patient NS3 amplicons, luciferase, Huh-7.5 cells; assay type: cell-based; conditions: Hepatitis C virus, Huh7.5, read-out: EC50 values
Source text: (§2) A bicistronic HCV replicon shuttle vector (pIT2) comprising a luciferase reporter gene and an adapted Con-1 NS3/NS5B region was modified to create two unique restriction sites (Mlu I and Spe I) at NS3 codons 11 and 225 which enabled the insertion of compatible NS3 amplicons isolated from HCV-infected patient plasma samples. The first-round PCR product synthesized from the patient plasma-purified RNA (also used for generating fragments for population- and clonal-based sequencing) was used to amplify a 0.65 kbp fragment with primer pairs that respectively contain the unique MluI and SpeI restriction sites for insertion into the shuttle vector. Amplicons were ligated in the pIT2 shuttle vector and reconstituted plasmid DNA was used to generate HCV subgenomic replicon RNA transcripts (T7 RIBOMAX™ kit, Promega). […] At the end of the incubation, luciferase activity was measured with the BRIGHT-GLO™ substrate as the luminescence quantified (CPS) in each well of the culture plate reflected the amount of HCV RNA replication. […] The EC50 of mutant NS3 were compared to the baseline EC50 and used to generate fold-change values.

[3] = tested on: R155K variants (genotype 1a NS3); assay: as above; assay type: cell-based; conditions: Hepatitis C virus, Huh7.5, read-out: range of EC50 values
Source text: as §2

[4] = tested on: chronic hepatitis C genotype-1 infection; conditions: for Virologic rebound during the first 28 days of treatment: 240 mg qd + PegIFN/RBV
Procedure: as §1
A multiple rising dose study evaluated the safety and antiviral activity in P+R treatment-experienced patients (pts) with chronic hepatitis C genotype-1 infection for 28 days as combination therapy with P+R.
All patients were monitored for safety and tolerability of study drugs. The primary endpoint was a ≧2 log 10 reduction in HCV viral load (VL) from baseline at any time up to Day 28. Plasma HCV-RNA levels were measured using the Roche COBAS® TaqMan® assay (LLOQ 25 IU/mL). The treatment experienced patients in this study included P+R null responders and partial responders. After day 28, at the discretion of the investigator, patients could continue to receive standard of care treatment, i.e., P+R.

Which “VL rebound during treatment in the first 14 days of monotherapy” value [1] does the source give for `C=C[C@@H]1C[C@]1(NC(=O)[C@@H]1C[C@H](Oc2cc(-c3csc(NC(=O)C(C)C)n3)nc3c(Br)c(OC)ccc23)CN1C(=O)[C@@H](NC(=O)OC1CCCC1)C(C)(C)C)C(=O)O` [Compound (1) sodium salt] here?
The value was “majority of patients”.

And the “VL rebound during treatment in the first 14 days of monotherapy” value ([1]; listed as Compound (1) (sodium salt))?
The value was “majority of the patients”.

What about the “VL decline achieved during the monotherapy period” value ([1]; all pts on active except 1 pt in the 20 mg cohort) of the same compound?
Its value is over 2 log 10.

What about the “Discontinuation of treatment due to adverse events” value ([1]; during monotherapy) of the same compound?
The value was “No pts discontinued”.

What about the “Time of maximal decline of VL after starting treatment” value ([1]; monotherapy, typical) of the same compound?
Its value is 2 to 4 days.

What about the “Virologic rebound during the first 28 days of treatment (patients)” value ([4]; 48 mg qd + PegIFN/RBV) of the same compound?
The value was 2/6.

What about the “Virologic rebound during the first 28 days of treatment (patients)” value ([4]; 120 mg qd + PegIFN/RBV) of the same compound?
Its value is 1/7.

And the “pts with VL<25 IU/mL at Day 28” value ([4]; 240 mg qd + P+R)?
The value was “⅚”.

And the “Virologic rebound during the first 28 days of treatment” value [4]?
The value was “no rebound”.

And the “Virologic rebound during the first 28 days of treatment” value ([4]; listed as BI 201335)?
Its value is “No rebound”.

What about the “VL decline achieved with triple combination therapy” value ([4]; all pts, + P+R) of the same compound?
Its value is over 2 log 10.

What about the “Discontinuation of treatment due to an AE” value ([4]; combination with P+R, AE anxiety) of the same compound?
Its value is “One subject discontinued”.

What about the “VL at next visit, Day 42” value ([4]; sixth pt of the 240 mg qd cohort) of the same compound?
Its value is under 25 IU/ml.
